Experiment [1] concerns Human ES cells (HUES7, H9, MAN7). The experiment can be described thus: Differentiation of human ES cells towards neural precursor cells in adherent culture, immunofluorescence of neural precursor markers. Format: cell-based. The protocol: Human ES cell lines, HUES7 (passage 39-44), H9 (passage 50-55) and MAN7 (passage 18-21) were grown under adherent feeder-free culture conditions prior to induction of differentiation. Cells were cultured in STEMPRO® (Invitrogen—complete medium) which comprises; DMEM/F-12+GlutaMAX, 8 ng/ml FGF-basic factor (Peprotec), STEMPRO® hESC SFM Growth Supplement (1×), 1.8% BSA, and 0.1 Mm 2-mercaptoethanol. Cells were cultured on either Matrigel™- (BD Biosciences 356234) or Geltrex™- (Invitrogen 12760-021) coated tissue culture grade plates. Matrigel-treated plates were coated with pre-diluted Matrigel™ (1:100 in DMEM/F12 media) and incubated at room temperature prior to use. Geltrex™-coated plates were coated with pre-diluted Geltrex™ (1:29 in DMEM/F12 media) and incubated for 1 h at 37° C. prior to use. Media was replenished every 24 h and cells were passaged upon confluency. All cells were propagated for a minimum of two passages as feeder-free cultures to exclude unwanted residual mouse fibroblast feeder cells. Cells were dissociated either using trypsin-EDTA (Sigma) or Collagenase IV (Sigma-1 mg/ml final concentration) dependent on the ES cell line used.
Confluent undifferentiated cells were dissociated and seeded at a low density (2.0E5 cells/962 mm2) onto 0.1% w/v gelatin coated wells in differentiation medium alone (DMEM/F-12+GlutaMAX (Invitrogen), 10% Knockout Serum Replacement (KSR) (Invitrogen), Penicillin/Streptomycin (1×) (PAA) for 24 hours prior to media supplementation with an E-cadherin inhibiting peptide (H-Ser-Trp-Glu-Leu-Tyr-Tyr-Pro-Leu-Arg-Ala-Asn-Leu-NH2, >95% purity, acetate salt background) (Bachem) as published in Devemy & Blashuk (2009). Peptide was reconstituted at 30 mg/ml in sterile ddH2O (20 mM stock concentration), with a working concentration 500 μM for inhibition of human E-cadherin. Media (and peptide) were replenished every 2 days for 6-7 days. After this time peptide is no longer necessary. […]
Cells were fixed in 4% w/v paraformaldehyde and stained in situ (Mohamet et al, 2010). […] The cells were viewed on a Leica DM500 fluorescence microscope.

The test system of the next experiment is Human ES cells. The experiment can be described thus: Assessment of non-neuronal lineages in directed neural differentiation of human ES cells. Format: cell-based. The protocol: Confluent undifferentiated cells were dissociated and seeded at a low density (2.0E5 cells/962 mm2) onto 0.1% w/v gelatin coated wells in differentiation medium alone (DMEM/F-12+GlutaMAX (Invitrogen), 10% Knockout Serum Replacement (KSR) (Invitrogen), Penicillin/Streptomycin (1×) (PAA) for 24 hours prior to media supplementation with an E-cadherin inhibiting peptide (H-Ser-Trp-Glu-Leu-Tyr-Tyr-Pro-Leu-Arg-Ala-Asn-Leu-NH2, >95% purity, acetate salt background) (Bachem) as published in Devemy & Blashuk (2009). Peptide was reconstituted at 30 mg/ml in sterile ddH2O (20 mM stock concentration), with a working concentration 500 μM for inhibition of human E-cadherin. Media (and peptide) were replenished every 2 days for 6-7 days. After this time peptide is no longer necessary. Morphological analysis and immunostaining with markers for neural precursor cells and more mature neural cells were performed during the course of the differentiation protocol.
Cells were fixed in 4% w/v paraformaldehyde and stained in situ (Mohamet et al, 2010). […] The cells were viewed on a Leica DM500 fluorescence microscope. […]

Experiment [2] concerns Human iPS cells (hiPSCs). The experiment can be described thus: Neural differentiation of hiPSCs using E-cadherin inhibitors, Nestin immunofluorescence. The experiment is classed as cell-based. Conditions: day 7; for number of Nestin positive cells: treated daily, peptides 1 mM, antibody 2 μg/ml. The procedure:
Human iPSCs were differentiated as previously described. Peptides A, B or C were supplemented to the media at a final concentration of 1 mM and E-cadherin neutralising antibody supplemented to the media at 2 μg/ml daily for 6-7 days. The equivalent volume of water was added to cultures as a vehicle control.
All other methodology was performed as outlined above in connection with neural differentiation and characterisation of resultant neural progenitor cells (NPCs). […] Accordingly, supplementation in this manner may be a preferred embodiment of methods of the invention as practiced upon pluripotent stem cells such as iPSCs.
To initiate differentiation confluent undifferentiated cells were dissociated and seeded at a low density onto gelatin coated wells in differentiation medium supplemented with/without E-cadherin-inhibitors for 7 days. To identify the phenotype of these cells, cultures were harvested at day 7 and immunofluorescent analysis of the neural progenitor cell marker Nestin was performed (FIG. 10).

Experiment [3] relates to Human iPS cells (hiPSCs). The experiment can be described thus: Effect of E-cadherin inhibitors on cell-cell contact in pluripotent hiPSCs (phase contrast). Format: cell-based. As to conditions: 48 h in MTesR complete media, adherent feeder free. The procedure: Human iPS cells (hiPSCs) were grown under adherent feeder-free culture conditions. All cells were propagated for a minimum of two passages as feeder-free cultures to exclude unwanted residual mouse fibroblast feeder cells. Cells were cultured in MTesR complete medium (Stem Cell Technologies). Cells were cultured on Matrigel™- (BD Biosciences 356234) coated tissue culture grade plates. Matrigel-treated plates were coated with pre-diluted Matrigel™ (1:100 in DMEM/F12 media) and incubated at room temperature prior to use. Media was replenished every 24 h and cells were passaged upon confluency. Cells were dissociated using trypsin-EDTA.
Human iPS cells were grown under standard adherent feeder-free culture conditions prior to induction of differentiation.

Another experiment has as its target T1, human E-cadherin (human, UniProt P12830 155-882).
T1 sequence: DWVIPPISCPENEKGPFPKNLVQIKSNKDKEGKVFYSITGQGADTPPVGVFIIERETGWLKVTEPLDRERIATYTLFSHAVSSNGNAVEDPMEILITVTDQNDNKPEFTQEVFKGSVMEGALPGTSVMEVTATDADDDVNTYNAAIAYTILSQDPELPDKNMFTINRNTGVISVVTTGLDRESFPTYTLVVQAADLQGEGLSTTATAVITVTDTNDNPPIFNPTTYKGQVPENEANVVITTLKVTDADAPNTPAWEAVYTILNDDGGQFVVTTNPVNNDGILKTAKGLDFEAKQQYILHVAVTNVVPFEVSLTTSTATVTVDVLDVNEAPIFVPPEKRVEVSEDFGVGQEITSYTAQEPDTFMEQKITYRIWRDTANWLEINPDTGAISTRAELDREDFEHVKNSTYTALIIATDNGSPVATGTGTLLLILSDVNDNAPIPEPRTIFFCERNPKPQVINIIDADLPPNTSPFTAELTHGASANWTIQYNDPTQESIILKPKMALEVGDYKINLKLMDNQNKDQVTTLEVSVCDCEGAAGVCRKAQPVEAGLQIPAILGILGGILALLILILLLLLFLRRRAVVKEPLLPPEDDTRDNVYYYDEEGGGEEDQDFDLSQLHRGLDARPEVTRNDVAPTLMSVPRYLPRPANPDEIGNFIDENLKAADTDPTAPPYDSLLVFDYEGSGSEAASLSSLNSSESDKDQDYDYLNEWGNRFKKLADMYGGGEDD
The experiment can be described thus: cell-based or functional assay.

“Also recorded” adds a separate entry of the source. Where no end group is shown, it is not given here. Some results are limits rather than exact numbers.

Consider five molecules from patent US20150291933A1, “CELL DIFFERENTIATION” (THE UNIVERSITY OF MANCHESTER, priority 2012, published 2015).

In the case of “SWELYYPLRANL (SWELYYPLRANL-NH2; also: acetate salt) [Peptide A, Study 1 used H-Ser-Trp-Glu-Leu-Tyr-Tyr-Pro-Leu-Arg-Ala-Asn-Leu-NH2 (Bachem, acetate salt background)]”, in experiment [1] (cultured 6-7 days in media supplemented with peptide), the “undifferentiated colonies (phase contrast)” value is “no undifferentiated colonies were observed”. Further, the “number of Nestin positive cells” value in experiment [1] (media supplemented with peptide 500 μM, 7 days of differentiation, n=3) amounted to 95.3%; in the experiment on Human iPS cells (hiPSCs) [2] it was 94%. The “NESTIN and VIMENTIN expression (immunofluorescence)” value in experiment [1] (peptide 500 μM, harvested at day 7) is reported as “homogenous expression”. Moreover, the “α smooth muscle actin (mesoderm) expression” value with Human ES cells (cells harvested on day 15, n=3) was “only detected in 1 cell out of all cultures assessed”. The “staining of endoderm marker Forkhead box protein A2 (foxA2)” value in the experiment with Human ES cells (differentiated for 15 days) is reported as “no positive staining”.
Regarding SRELYYPLRANL [Peptide B, control], the “culture morphology / cell-cell contacts” value in the experiment on Human iPS cells (hiPSCs) [3] is “retain the compacted morphology typical of hiPSCs; also recorded: retain the compacted morphology of hiPSCs, without loss of cell-cell contacts”. In addition, the “number of Nestin positive cells” value in the experiment on Human iPS cells (hiPSCs) [2] came to 33%.
Molecule “E-cadherin neutralising antibody (SHE78.7 clone, Invitrogen 13-5700)” registered a loss of cell-cell contact in hiPSCs (phase contrast, 48 h, antibody 2 ug/ml) in the experiment with human E-cadherin above 85%.
For the molecule “SWELYYPL (Inhibitory peptide) [Peptide C]”, in the experiment with Human iPS cells (hiPSCs) [3], the “loss of cell-cell contact, proportion of cells” value is 50-60%. Also, the “Nestin positive cells, one experiment (variable results)” value with Human iPS cells (hiPSCs) [2] (peptide 1 mM, one experiment only) is listed as “approx. 50%”. The “number of Nestin positive cells” value in the experiment on Human iPS cells (hiPSCs) [2] was determined as 76%.

B1: Peptide A (SWELYYPLRANL) (peptide)
peptide: SWELYYPLRANL
modifications: not fully specified
Take B1: in the experiment with human E-cadherin, the “loss of cell-cell contact in hiPSCs (phase contrast, 48 h, peptide 1 mM)” value is above 85%.
